From patent US9980489B2, “Stabilized bio-available soluble silicate solution” (priority 2010, dated 2018)

Test system: silicon accumulator plants, silicon diffusion plants and silicon rejecting plants
Conditions: foliar spray every week, solution containing 0002 mg/ml Si

## silicic acid
  effect on growth, production, resistance to infection, color of fruits, shelf life: clear effect
